Earlier results as cited in patent publication US6676959B1, “Nicotine-containing pharmaceutical compositions giving a rapid transmucosal absorption” (priority 1998, dated 2004).

Conditions: after starting smoking

In the case of `CN1CCCC1c1cccnc1` (stereo not shown) [nicotine], the “Time to peak blood levels of nicotine” value is listed as 5 to 10 min.
